#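 Growth conditions: 96-well plates. Treatment: test compound, 48 hours, 5 concentrations. Analysis: linear interpolation between bracketing concentrations; unreached endpoints set to highest concentration. TGI denotes the concentration required for complete inhibition of growth.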 Where a SMILES comes first, the peptide text is derived from it. The star is where a group is joined. Cbz = O=C(OCc1ccccc1)*; Boc = CC(C)(C)OC(=O)*; tBu = CC(C)(C)*
# Assays:
# Experiment in all cases: NCI anticancer screen, dose series, 48 h
# [1] = system: 786-0 renal
# [2] = system: A498 renal
# [3] = system: A549 NSCLC
# [4] = system: ACHN renal
# [5] = system: CAKI-1 renal
# [6] = system: CCRF-CEM leukemia
# [7] = system: COLO 205 colon
# [8] = system: DU-145 prostate
# [9] = system: EKVX NSCLC
# [10] = system: HCC-2998 colon
# [11] = system: HCT-116 colon
# [12] = system: HCT-15 colon
# [13] = system: HL-60(TB) leukemia
# [14] = system: HOP-62 NSCLC
# [15] = system: HOP-92 NSCLC
# [16] = system: HS 578T breast
# [17] = system: HT29 colon
# [18] = system: IGROV1 ovarian
# [19] = system: K-562 leukemia
# [20] = system: KM12 colon
# [21] = system: LOX IMVI melanoma
# [22] = system: M14 melanoma
# [23] = system: MALME-3M melanoma
# [24] = system: MCF7 breast
# [25] = system: MDA-MB-231 breast
# [26] = system: MDA-MB-435
# [27] = system: MDA-N
# [28] = system: MOLT-4 leukemia
# [29] = system: NCI-H226 lung
# [30] = system: NCI-H23 lung
# [31] = system: NCI-H460 lung
# [32] = system: NCI-H522 lung
# [33] = system: NCI/ADR-RES ovarian
# [34] = system: OVCAR-3 ovarian
# [35] = system: OVCAR-4 ovarian
# [36] = system: OVCAR-5 ovarian
# [37] = system: OVCAR-8 ovarian
# [38] = system: PC-3 prostate
# [39] = system: RPMI-8226 leukemia
# [40] = system: RXF 393 renal
# [41] = system: SF-268 CNS
# [42] = system: SF-295 CNS
# [43] = system: SF-539 CNS
# [44] = system: SK-MEL-2 melanoma
# [45] = system: SK-MEL-28 melanoma
# [46] = system: SK-MEL-5 melanoma
# [47] = system: SK-OV-3 ovarian
# [48] = system: SN12C renal
# [49] = system: SNB-19 CNS
# [50] = system: SNB-75 CNS
# [51] = system: SR leukemia
# [52] = system: SW-620 colon
# [53] = system: T-47D breast
# [54] = system: TK-10 renal
# [55] = system: U251 CNS
# [56] = system: UACC-257 melanoma
# [57] = system: UACC-62 melanoma
# [58] = system: UO-31 renal
# [59] = system: BT-549 breast
compound,measurement,setting,value
CC(OC(C)(C)C)C(NC(=O)C(CCCCNC(=O)OC(C)(C)C)NC(=O)C(Cc1c[nH]c2ccccc12)NC(=O)C(Cc1ccccc1)NC(=O)OCc1ccccc1)C(=O)NC(Cc1ccccc1)C(=O)O (centres undefined) (Cbz-FWK(Boc)T(tBu)F-OH; configuration not given here),TGI,[1],> 100 µM
same,TGI,[2],> 100 µM
same,TGI,[3],> 100 µM
same,TGI,[4],> 100 µM
same,TGI,[5],> 100 µM
same,TGI,[6],> 100 µM
same,TGI,[7],> 100 µM
same,TGI,[8],> 100 µM
same,TGI,[9],> 100 µM
same,TGI,[10],> 100 µM
same,TGI,[11],> 100 µM
same,TGI,[12],> 100 µM
same,TGI,[13],> 100 µM
same,TGI,[14],> 100 µM
same,TGI,[15],> 100 µM
same,TGI,[16],44.4 µM
same,TGI,[17],> 100 µM
same,TGI,[18],98.9 µM
same,TGI,[19],> 100 µM
same,TGI,[20],> 100 µM
same,TGI,[21],> 100 µM
same,TGI,[22],> 100 µM
same,TGI,[23],> 100 µM
same,TGI,[24],> 100 µM
same,TGI,[25],> 100 µM
same,TGI,[26],> 100 µM
same,TGI,[27],> 100 µM
same,TGI,[28],> 100 µM
same,TGI,[29],> 100 µM
same,TGI,[30],> 100 µM
same,TGI,[31],> 100 µM
same,TGI,[32],85 µM
same,TGI,[33],> 100 µM
same,TGI,[34],85 µM
same,TGI,[35],> 100 µM
same,TGI,[36],> 100 µM
same,TGI,[37],> 100 µM
same,TGI,[38],> 100 µM
same,TGI,[39],> 100 µM
same,TGI,[40],> 100 µM
same,TGI,[41],> 100 µM
same,TGI,[42],> 100 µM
same,TGI,[43],59.9 µM
same,TGI,[44],92.8 µM
same,TGI,[45],> 100 µM
same,TGI,[46],33.9 µM
same,TGI,[47],> 100 µM
same,TGI,[48],62.6 µM
same,TGI,[49],52.8 µM
same,TGI,[50],> 100 µM
same,TGI,[51],> 100 µM
same,TGI,[52],> 100 µM
same,TGI,[53],73.6 µM
same,TGI,[54],> 100 µM
same,TGI,[55],> 100 µM
same,TGI,[56],> 100 µM
same,TGI,[57],67.9 µM
same,TGI,[58],> 100 µM
CCOP(=O)(O)C1C(CO)OC(n2ccc(=O)[nH]c2=O)C1O (centres undefined),TGI,[1],> 100 µM
same,TGI,[2],> 100 µM
same,TGI,[3],> 100 µM
same,TGI,[4],> 100 µM
same,TGI,[59],> 100 µM
same,TGI,[5],> 100 µM
same,TGI,[6],> 100 µM
same,TGI,[9],> 100 µM
same,TGI,[10],> 100 µM
same,TGI,[11],> 100 µM
same,TGI,[12],> 100 µM
same,TGI,[13],> 100 µM
same,TGI,[14],> 100 µM
same,TGI,[15],> 100 µM
same,TGI,[16],> 100 µM
same,TGI,[17],> 100 µM
same,TGI,[18],> 100 µM
same,TGI,[19],> 100 µM
same,TGI,[20],> 100 µM
same,TGI,[21],> 100 µM
same,TGI,[22],> 100 µM
same,TGI,[23],> 100 µM
same,TGI,[25],> 100 µM
same,TGI,[27],> 100 µM
same,TGI,[28],> 100 µM
same,TGI,[29],> 100 µM
same,TGI,[31],> 100 µM
same,TGI,[32],> 100 µM
same,TGI,[34],> 100 µM
same,TGI,[35],> 100 µM
same,TGI,[37],> 100 µM
same,TGI,[38],> 100 µM
same,TGI,[39],> 100 µM
same,TGI,[40],> 100 µM
same,TGI,[41],> 100 µM
same,TGI,[42],> 100 µM
same,TGI,[43],> 100 µM
same,TGI,[44],> 100 µM
same,TGI,[45],> 100 µM
same,TGI,[46],> 100 µM
same,TGI,[48],> 100 µM
same,TGI,[49],> 100 µM
same,TGI,[50],> 100 µM
same,TGI,[51],> 100 µM
same,TGI,[52],> 100 µM
same,TGI,[53],> 100 µM
same,TGI,[54],> 100 µM
same,TGI,[56],> 100 µM
same,TGI,[57],> 100 µM
same,TGI,[58],> 100 µM
COc1cc(OC)cc(-c2nc3cc(F)ccc3s2)c1,TGI,[1],23.5 µM
same,TGI,[2],62.9 µM
same,TGI,[3],> 100 µM
same,TGI,[4],29.8 µM
same,TGI,[59],24.7 µM
same,TGI,[5],> 100 µM
same,TGI,[6],> 100 µM
same,TGI,[7],> 100 µM
same,TGI,[8],> 100 µM
same,TGI,[9],43.5 µM
same,TGI,[10],0.0449 µM
same,TGI,[11],38.8 µM
same,TGI,[12],> 100 µM
same,TGI,[17],> 100 µM
same,TGI,[18],43.6 µM
same,TGI,[20],> 100 µM
same,TGI,[21],> 100 µM
same,TGI,[22],> 100 µM
same,TGI,[23],> 100 µM
same,TGI,[24],> 100 µM
same,TGI,[25],40.3 µM
same,TGI,[26],> 100 µM
same,TGI,[27],> 100 µM
same,TGI,[29],37.8 µM
same,TGI,[30],28.4 µM
same,TGI,[31],> 100 µM
same,TGI,[32],45.5 µM
same,TGI,[33],> 100 µM
same,TGI,[34],86.3 µM
same,TGI,[35],> 100 µM
same,TGI,[36],> 100 µM
same,TGI,[37],97.8 µM
same,TGI,[38],> 100 µM
same,TGI,[39],> 100 µM
same,TGI,[40],36.6 µM
same,TGI,[41],32 µM
same,TGI,[42],23.5 µM
same,TGI,[43],31.3 µM
same,TGI,[44],62.5 µM
same,TGI,[46],> 100 µM
same,TGI,[47],31.4 µM
same,TGI,[48],> 100 µM
same,TGI,[49],49.2 µM
same,TGI,[52],> 100 µM
same,TGI,[53],> 100 µM
same,TGI,[54],33.2 µM
same,TGI,[55],33.9 µM
same,TGI,[56],> 100 µM
same,TGI,[57],41.7 µM
same,TGI,[58],> 100 µM
O=C1OC(c2ccco2)=N/C1=C\c1cccc([N+](=O)[O-])c1,TGI,[1],> 100 µM
same,TGI,[2],> 100 µM
same,TGI,[3],> 100 µM
same,TGI,[4],> 100 µM
same,TGI,[59],> 100 µM
same,TGI,[5],> 100 µM
same,TGI,[6],> 100 µM
same,TGI,[7],> 100 µM
same,TGI,[8],> 100 µM
same,TGI,[9],> 100 µM
same,TGI,[10],> 100 µM
same,TGI,[11],> 100 µM
same,TGI,[12],> 100 µM
same,TGI,[13],> 100 µM
same,TGI,[14],> 100 µM
same,TGI,[15],> 100 µM
same,TGI,[16],> 100 µM
same,TGI,[17],> 100 µM
same,TGI,[18],> 100 µM
same,TGI,[19],> 100 µM
same,TGI,[20],> 100 µM
same,TGI,[21],> 100 µM
same,TGI,[22],> 100 µM
same,TGI,[23],> 100 µM
same,TGI,[24],> 100 µM
same,TGI,[25],> 100 µM
same,TGI,[26],> 100 µM
same,TGI,[27],> 100 µM
same,TGI,[28],> 100 µM
same,TGI,[29],> 100 µM
same,TGI,[30],> 100 µM
same,TGI,[31],> 100 µM
same,TGI,[32],> 100 µM
same,TGI,[34],> 100 µM
same,TGI,[35],> 100 µM
same,TGI,[36],> 100 µM
same,TGI,[37],> 100 µM
same,TGI,[38],> 100 µM
same,TGI,[39],> 100 µM
same,TGI,[41],> 100 µM
same,TGI,[42],> 100 µM
same,TGI,[43],> 100 µM
same,TGI,[44],> 100 µM
same,TGI,[45],> 100 µM
same,TGI,[46],> 100 µM
same,TGI,[47],> 100 µM
same,TGI,[48],> 100 µM
same,TGI,[49],> 100 µM
same,TGI,[50],> 100 µM
same,TGI,[51],> 100 µM
same,TGI,[52],> 100 µM
same,TGI,[53],> 100 µM
same,TGI,[54],> 100 µM
same,TGI,[55],> 100 µM
same,TGI,[56],> 100 µM
same,TGI,[57],> 100 µM

# From PubChem BioAssay (NCI)
